Source: patent publication US5496855A, “Anti-inflammatory compounds” (SmithKline Beecham Corp., priority 1995, dated 1996)

Assays:
[1] = system: TPA-induced Mouse Ear Inflammation; assay: Assay (g): TPA-induced mouse ear inflammation (ear edema, MPO); format: in vivo; details: topical; standard inhibitors at doses of 0.2, 0.1 and 0.3 respectively
Description: (§1) Male Balb/c inbred mice are obtained from Charle River Breeding Laboratories (Kingston, N.Y.). Within a single experiment mice (22-25 g) are age-matched. These in vivo experiments typically involve the use of 5-6 animals/group.
TPA (12-0-tetradecanoylphorbol 13-acetate) (Sigma Chemical Company) in acetone ([…]) is applied to the inner and outer surfaces of the left ear of BALB/c male mice. The thickness of both ears is then measured with a dial micrometer (Mitutoyo, Japan) at both 2 and 4 hours after treatment, and the data expressed as the change in thickness (10^-3 cm) between treated and untreated ears. […] After measuring the edema, the inflammed left ears are removed and stored at -70° C. until they were assayed for MPO (myeloperoxidase) activity where appropriate.
(§2) On the day of the assay, partially thawed ear tissues are minced and then homogenized (10% w/v) with a Tissumizer homogenizer (Tekmar Co.) in 50 mM phosphate buffer (pH 6) containing 0.5% HTAB. The tissue homogenates are taken through three cycles of freeze-thaw, followed by brief sonication (10 sec). The method of Bradley et at. is used with modifications as described. […] Supernatant MPO activity is quantified kinetically (change in absorbance measured over 3 min, sampled at 15-sec intervals) using a Beckman DU-7 spectrophotometer and a Kinetics Analysis package (Beckman Instruments, Inc.). One unit of MPO activity is defined as that degrading one micromole of peroxide per minute at 25° C.
Statistical analysis is done using Student's "t" test.

[2] = system: Arachidonic acid induced ear inflammation; assay: Assay (h): Arachidonic acid induced ear inflammation (ear edema, MPO); format: in vivo, mouse; details: topical; standard inhibitors at doses of 0.2, 0.1 and 0.3 respectively
Description: as §1, §2
Arachidonic acid is dissolved in acetone (1 mg/ear) to the left ear of BALB/c male mice. The thickness of both cars is measured with a constant pressure thickness guage 1 hour after treatment and the data expressed as the change in thickness between treated and untreated ears. Test compounds or vehicle are given at the time of AA application. The inflammatory cell infiltration is measured by MPO activity as described above in the TPA ear edema assay. After the edema measurements are made, the inflamed ears are removed and assayed for MPO activity.

SMILES | change in MPO, TPA model [1] | change in MPO, AA model [2] | TPA % change in edema [1] [%] | AA % change in edema [2] [%]
CC(=O)O[C@H]1C[C@@H]2[C@@]3(C)CCCC(C)(C)[C@@H]3CC[C@@]2(C)[C@@H]2CC=C(C=O)[C@H](C=O)[C@@]12C [scalaradial] | -65 | -33 |  | 
C[C@H](C(=O)O)c1ccc2cc(OCc3ccc4ccccc4n3)ccc2c1 [WY 50,295] | -36 | -90 | -18 | -50
C[C@@H]1C[C@H]2[C@@H]3CCC4=CC(=O)C=C[C@]4(C)[C@@]3(F)[C@@H](O)C[C@]2(C)[C@@]1(O)C(=O)CO [dexamethasone] | -54 | 0 | -50 | -10
